From patent US20060281720A1, “5-Androstenediol As An Inhibitor of Gliomas” (priority 2005, published 2006)

Tests used:
[1] = tested on: rat F98 glioma cells; experiment: Proliferation of rat F98 glioma cells by 3H-TdR incorporation; format: cell-based; conditions: 3 days; for cell growth / proliferation (3H-TdR incorporation): compared to controls; for dose dependency of antiproliferative effect / proliferation: Example 2, FIG. 2; for dose dependency of antiproliferative effect: 500, 50, 5.0 and 0.5 μm; for proliferation: at 500 μm
Description: (§1) αAED, βAED, αAET, and βAET, are commercially available.
(§2) The F98 cells are weakly immunogenic. […] The T9 cell line is tumorgenic and immunogenic.
(§3) During the growth phase, the media was not changed.
(§4) Rat F98 glioma cells and […] glioma cells were grown and cultured as in example 1 above. The cells were cultured in the presence of αAED or βAED in titrated concentrations of 500 μm, 50 μm, 5.0 μm, and 0.5 μm. After 3 days, glioma cell proliferation was measured as described above.
(§5) The cells were cultured in the presence of αAED, βAED, αAET, βAET, or vehicle in titrated concentrations of 400 μm, 200 μm, 100 μm, and 50 μm.

[2] = tested on: human T98 glioma cells; experiment: Proliferation of human T98 glioma cells by 3H-TdR incorporation; format: cell-based; conditions: 3 days; for cell growth / proliferation (3H-TdR incorporation): compared to controls; for dose dependency of antiproliferative effect / proliferation: Example 2, FIG. 2; for dose dependency of antiproliferative effect: 500, 50, 5.0 and 0.5 μm; for proliferation: at 500 μm
Description: as §1, §2, §3, §4, §5

[3] = tested on: rat F98 glioma cells; experiment: Morphology of rat F98 glioma cells viewed in situ by microscope; format: cell-based; conditions: Example 3, FIG. 3, 24 hours; for morphological changes compared to vehicle treated cells: 20× magnification
Description: Cells were cultured as described in example 1 for 24 hours. Cells were cultured with […] of αAED, βAED, βAET, and vehicle. After culture, the cells were viewed in situ under 20× magnification using a reverse image microscope.

[4] = tested on: human U87 glioma cells; conditions: Example 1, FIG. 1; 500 μm, 3 days, compared to controls
Description: (§6) αAED, βAED, αAET, and βAET, are commercially available. Unless otherwise indicated, all steroids were dissolved in DMSO:ETHOL (1:1 v/v). Stock solutions were refrigerated and brought to room temperature before use. For testing, stock solutions were diluted in media immediately before use.
(§7) The rat F98 cell line was obtained from the American Type Culture Collection (ATCC No. CRL-2397). These cells are tumorgenic and have biological characteristics that closely resemble those of human glioblastoma. The F98 cells are weakly immunogenic. […] The T9 cell line is tumorgenic and immunogenic. The human U-87 cell line was obtained from American Type Culture Collection (ATCC No. HTB-14). These cells are tumorgenic and are derived from malignant gliomas. The human T98 cell line was obtained from the American Type Culture Collection (ATCC No. CRL-1690). These cells are derived from the brain of a subject diagnosed with glioblastoma multiforme.
(§8) Cells were grown in Complete Media (CM) consisting of Dulbecco's Modified Eagle Medium. Cells were initially seeded at a density of 1×10^4 cells per 0.2 ml in 96 well plates and grown at 37° C. During the growth phase, the media was not changed. Proliferation was measured by tritium uptake (as a measure of DNA synthesis). One microcurie (1 μC) was added to the cells and incubated overnight. The 96 well plate was then refrigerated and counted in a topcount cell plate harvester.
(§9) Rat F98 and T9 glioma cells and […] and U87 glioma cells were cultured in 96 well plates at a density of approximately 1×10^4 cells per well. Cells were treated with 500 μm of αAED or βAED or vehicle and cultured for 3 days. The cultures were pulsed with 3H-TdR for the last 15 hours.

[5] = tested on: rat T9 glioma cells; conditions: Example 1, FIG. 1; 500 μm, 3 days, compared to controls
Description: as §6, §7, §8, §9

[6] = tested on: Raw 264.7; conditions: Huynh and Loria, J Leukoc Biol 1997; cited from earlier work
[7] = tested on: murine P388D1; conditions: Huynh and Loria, J Leukoc Biol 1997; cited from earlier work
[8] = tested on: human promyelocytic HL60 cells; conditions: Huynh and Loria, J Leukoc Biol 1997; cited from earlier work
[9] = Example 5, FIG. 5, 400, 200, 100 and 50 μM
[10] = Example 4, FIG. 4, 400, 200, 100 and 50 μM

Question: Which “cell growth / proliferation (3H-TdR incorporation)” value (shortened to “cell growth / proliferation”) [1, 9] does the source give for `C[C@]12CC[C@H]3[C@@H]([C@@H](O)C=C4C[C@@H](O)CC[C@@]43C)[C@@H]1CC[C@@H]2O` [βAET, 5-androstene-3β-7β-17β-triol] here?
Answer: Its value is “displayed significant effects on the proliferation”.

Question: What about the “cell growth / proliferation” value [2, 10] of the same compound?
Answer: Its value is “displayed significant effects on the proliferation”.

Question: And the “morphology of apoptosis (cell shrinkage, rounding, vacuolization, partial detachment, lobulated appearance)” value [3]?
Answer: The value was “display morphology of apoptasis”.

Question: What about the “morphological changes compared to vehicle treated cells” value [3] of the same compound?
Answer: The value was “significant morphological changes”.

Question: What does the source list for `C[C@]12CC[C@H]3[C@@H]([C@H](O)C=C4C[C@@H](O)CC[C@@]43C)[C@@H]1CC[C@@H]2O` [αAET, 5-androstene-3β-7α-17β-triol]?
Answer: cell growth / proliferation (3H-TdR incorporation) [1, 9]: displayed significant effects on the proliferation; cell growth / proliferation (3H-TdR incorporation) [2, 10]: displayed significant effects on the proliferation

Question: What does the source list for 5-androstene-3β-17α-diol [αAED]?
Answer: cell growth / proliferation (3H-TdR incorporation) ([1]; Example 1, FIG. 1, 500 μm): inhibited cell growth; dose dependency of antiproliferative effect [1]: dose dependent; proliferation [1]: inhibited the proliferation; cell growth / proliferation (3H-TdR incorporation) [1, 9]: significantly inhibited cell growth; cell growth / proliferation (3H-TdR incorporation) [4]: inhibited cell growth; cell growth / proliferation (3H-TdR incorporation) [5]: inhibited cell growth; cell growth / proliferation (3H-TdR incorporation) ([2]; Example 1, FIG. 1, 500 μm): inhibited cell growth; dose dependency of antiproliferative effect [2]: dose dependent; proliferation [2]: inhibited the proliferation; cell growth / proliferation (3H-TdR incorporation) [2, 10]: significantly inhibited cell growth; morphology of apoptosis (cell shrinkage, rounding, vacuolization, partial detachment, lobulated appearance) [3]: display morphology of apoptasis; morphological changes compared to vehicle treated cells [3]: most drastic morphological changes; proliferation and apoptosis [6]: inhibits the proliferation and induces apoptosis; proliferation and apoptosis [7]: inhibits the proliferation and induces apoptosis; proliferation and apoptosis [8]: inhibits the proliferation and induces apoptosis

Question: For 5-androstene-3β-17β-diol [βAED], which “cell growth / proliferation” value ([1]; Example 1, FIG. 1, 500 μm) is on record?
Answer: The value was “inhibited cell growth”.

Question: And the “dose dependency of antiproliferative effect” value [1]?
Answer: Its value is “dose dependent”.

Question: What about the proliferation [1] of the same compound?
Answer: Its proliferation is “inhibited the proliferation”.

Question: And the “cell growth / proliferation” value [1, 9]?
Answer: The value was “inhibited cell growth”.

Question: What about the “cell growth / proliferation” value [4] of the same compound?
Answer: The value was “inhibited cell growth”.

Question: And the “cell growth / proliferation” value [5]?
Answer: Its value is “inhibited cell growth”.

Question: And the “cell growth / proliferation” value ([2]; Example 1, FIG. 1, 500 μm)?
Answer: The value was “inhibited cell growth”.

Question: What about the “dose dependency of antiproliferative effect” value [2] of the same compound?
Answer: The value was “dose dependent”.

Question: What about the proliferation [2] of the same compound?
Answer: Its proliferation is “inhibited the proliferation”.

Question: And the “cell growth / proliferation” value [2, 10]?
Answer: Its value is “inhibited cell growth”.

Question: What about the “morphology of apoptosis (cell shrinkage, rounding, vacuolization, partial detachment, lobulated appearance)” value [3] of the same compound?
Answer: The value was “display morphology of apoptasis”.

Question: And the “morphological changes compared to vehicle treated cells” value [3]?
Answer: The value was “significant morphological changes”.
